How the values were obtained:
Type in all cases: physicochemical
[1] = Investigation of thermodynamic stability by differential scanning calorimetry
Protocol: The differential scanning calorimetry in Experimental Example 5 was made by means of a Perkin Elmer DSC7 (for temperature-raising rate of 1° C./minute, the range of measurement: 130° C.→160° C.; and for temperature-raising rate of 2, 5, 7 or 10° C./minute, the range of measurement: 120° C.→170° C.).
The thermodynamic stability of the crystal of Compound A was investigated by differential scanning calorimetry.
The differential scanning calorimetry was carried out at a temperature-raising rate of 1, 2 or 5° C./minute for Form I crystal of Compound A and at 1, 5, 7 or 10° C./minute for Form II crystal. The results are shown in FIG. 7 (a chart of differential scanning calorimetry in Form I crystal), FIG. 8 and FIG. 9 (a chart of differential scanning calorimetry in Form II crystal).

[2] = Investigation of transformation mediated by solvents (suspension in toluene, crystalline form confirmed by DSC); conditions: 50 mg suspended in 1 ml of toluene, stirred overnight
Protocol: The differential scanning calorimetry in Example 1 and Example 2 was made by means of a Perkin Elmer DSC7 (temperature-raising rate: 10° C./minute; the range of measurement: 50° C. (constant temperature 1 minute)→180° C.). The differential scanning calorimetry in Experimental Example 4 was made by means of Shimadzu Corporation's DSC-50 (temperature-raising rate: 2° C./minute; the range of measurement: room temperature→220° C.).
The influence of toluene (solvent) on the crystalline form of Compound A was investigated.
Form I crystals and Form II crystals of Compound A, 50 mg each, were weighed and respectively suspended in 1 ml of toluene, and stirred overnight. Thereafter, the crystals were separated by filtration and dried, of which the crystalline form was confirmed by a differential scanning calorimetry.

[3] = Investigation of hygroscopicity (weight change and powder X-ray diffraction after storage in a desiccator); conditions: for transformation of crystalline form (powder X-ray diffraction before and after storage): 25° C. in 93% RH for 14 days; for weight change caused by absorption of moisture: 93% RH at 25° C., stored up to 14 days
Protocol: The powder X-ray diffraction spectra were measured by means of a Rigaku Corporation's RAD-2B (target: Cu; Voltage: 40 kV; current: 20 mA; scanning speed: 4°/minute; measurement error: 2θ±0.2°).
Form I crystals and Form II crystals of Compound A, approximately 1 g each, were precisely weighed in weighing bottles, which were then kept in a desiccator of 93% RH at 25° C. […] In addition, the powder X-ray diffraction spectra were measured before and after preservation. The results are shown in FIG. 3 (weight change of Form I crystal), FIG. 4 (weight change of Form II crystal), FIG. 5 (powder X-ray diffraction spectrum of Form I crystal), and FIG. 6 (powder X-ray diffraction spectrum of Form II crystal).

Row | Structure (SMILES) | endothermic peaks in differential scanning calorimetry ([1]; temperature-raising rate of 1, 2 or 5° C./minute) | transformation of crystalline form in solvent [2] | transformation of crystalline form (powder X-ray diffraction before and after storage) ([3]; listed as Form I crystals) | weight change caused by absorption of moisture ([3]; listed as Form I crystals) [%] | peak of Form I crystal in differential scanning calorimetry ([1]; lower temperature-raising rate: 7° C./minute, 5° C./minute, 1° C./minute) | peak of Form I crystal in differential scanning calorimetry ([1]; temperature-raising rate of 10° C./minute) | transformation of crystalline form in solvent ([2]; listed as form II crystal) | transformation of crystalline form (powder X-ray diffraction before and after storage) [3] | weight change caused by absorption of moisture [3]
1 | Cc1ccc(-c2nc(CCCC[C@H]3CO[C@@](C)(C(=O)O)OC3)c(C)o2)cc1 [Form I crystal, 2-methyl-c-5-[4-[5-methyl-2-(4-methylphenyl)-1,3-oxazol-4-yl]butyl]-1,3-dioxane-r-2-carboxylic acid] | only one endothermic peak | transformed into Form II crystal | transformation of crystalline form (from Form I to Form II) was recognized | 2.3 |  |  |  |  | 
2 | Cc1ccc(-c2nc(CCCC[C@H]3CO[C@@](C)(C(=O)O)OC3)c(C)o2)cc1 [Form II crystal, 2-methyl-c-5-[4-[5-methyl-2-(4-methylphenyl)-1,3-oxazol-4-yl]butyl]-1,3-dioxane-r-2-carboxylic acid] |  |  |  |  | a peak resulting from Form I crystal was recognized | no peak of Form I crystal was confirmed | no transformation of crystalline form occurs | no transformation of crystalline form | no change of weight
